Results on 15 compounds are retold here after patent US20090105349A1, “ANDROGEN MODULATORS” (WARNER-LAMBERT COMPANY LLC, priority 2004, published 2009).

Positions count from the first letter of the chain named. pIC50: −log10 of the molar value. Like-named read-outs stand apart in the source and are kept apart here.

Experiment [1] addresses T1, hAR (human androgen receptor) (Homo sapiens, UniProt P10275).
T1 construct: made in house; host or cells: baculovirus/Sf9 insect cells (crude extract)
T1 sequence (P10275 1-920): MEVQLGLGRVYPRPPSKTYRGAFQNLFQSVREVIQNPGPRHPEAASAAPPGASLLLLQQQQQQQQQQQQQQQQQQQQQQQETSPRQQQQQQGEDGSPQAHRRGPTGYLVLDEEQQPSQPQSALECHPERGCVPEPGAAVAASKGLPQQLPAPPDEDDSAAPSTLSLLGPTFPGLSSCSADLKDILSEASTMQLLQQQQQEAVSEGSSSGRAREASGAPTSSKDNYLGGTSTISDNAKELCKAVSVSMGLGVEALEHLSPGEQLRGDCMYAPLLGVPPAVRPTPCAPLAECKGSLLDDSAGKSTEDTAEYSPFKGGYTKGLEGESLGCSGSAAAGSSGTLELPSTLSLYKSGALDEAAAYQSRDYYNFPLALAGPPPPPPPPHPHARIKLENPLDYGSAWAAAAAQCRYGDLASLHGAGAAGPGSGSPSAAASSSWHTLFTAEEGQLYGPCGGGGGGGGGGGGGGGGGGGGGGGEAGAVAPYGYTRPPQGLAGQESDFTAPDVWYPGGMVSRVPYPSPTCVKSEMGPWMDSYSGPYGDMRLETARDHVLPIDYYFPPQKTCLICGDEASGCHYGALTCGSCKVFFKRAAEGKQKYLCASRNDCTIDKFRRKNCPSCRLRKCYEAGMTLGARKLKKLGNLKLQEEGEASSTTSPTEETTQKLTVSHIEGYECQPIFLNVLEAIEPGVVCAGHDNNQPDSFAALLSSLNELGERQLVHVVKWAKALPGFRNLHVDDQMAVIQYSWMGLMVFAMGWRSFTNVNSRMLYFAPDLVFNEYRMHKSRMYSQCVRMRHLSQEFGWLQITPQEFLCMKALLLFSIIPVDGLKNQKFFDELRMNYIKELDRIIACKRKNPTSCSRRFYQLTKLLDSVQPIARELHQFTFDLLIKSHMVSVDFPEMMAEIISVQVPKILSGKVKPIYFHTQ
The experiment can be described thus: Competitive hAR binding assay with 3H-DHT tracer.

In experiment [2] the target is T2, androgen receptor in MDA-MB453-MMTV clone 54-19 cells (Homo sapiens, UniProt P10275).
T2 sequence (P10275 1-920 Q868H): T1 sequence (P10275 1-920) with Q868H
The experiment can be described thus: AR antagonist cell assay (MMTV-luciferase reporter). Format: cell-based. Background: A reporter such as luciferase makes a cellular process visible.

[3] abbreviates: baculovirus/Sf9 hAR extract, 1 nM 3H-DHT, one hour at 4° C, mean of multiple tests, read-out: AR Binding IC50.
[4] abbreviates: read-out: AR Cell IC50; MDA-MB453-MMTV clone 54-19, inhibition of DHT induced luciferase, 17 hr; mean of multiple tests.
The mark [5] stands for this setting: MDA-MB453-MMTV clone 54-19, inhibition of DHT induced luciferase, 17 hr; mean of multiple tests; read-out: AR Cell IC50.

For the compound `N#Cc1ccc(Oc2ccccc2C(F)(F)F)c(Cl)c1` [Example 20, 3-Chloro-4-(2-trifluoromethyl-phenoxy)-benzonitrile], the negative-log IC50 (pIC50) – broadly, −log10 of the IC50, conventionally taken in molar units – is 6.60 in experiment [1] (setting [3]) and 7.29 in experiment [2] (setting [4]).
As for `COc1cccc(Oc2ccc(C#N)c(Cl)c2)c1` [Example 37, 2-Chloro-4-(3-methoxy-phenoxy)-benzonitrile], the pIC50 in experiment [1] (setting [3]) was 6.94; in experiment [2] (setting [5]) it was 6.86.
`N#Cc1ccc(Oc2cccc3c2CCCC3)cc1Cl` [Example 32, 2-Chloro-4-(5,6,7,8-tetrahydro-naphthalen-1-yloxy)-benzonitrile]: the pIC50 is 7.03 in experiment [1] and 6.33 in experiment [2] (setting [5]).
`COc1cc(Oc2ccccc2C)ccc1C#N` [Example 117, 2-Methoxy-4-o-tolyloxy-benzonitrile]: the pIC50 in experiment [1] (setting [3]) was 7.28; in experiment [2] (setting [5]), 7.59.
On to `N#Cc1ccc(Oc2ccccc2C(F)(F)F)cc1C(F)(F)F` [Example 108, 2-Trifluoromethyl-4-(2-trifluoromethyl-phenoxy)-benzonitrile], for which the pIC50 in experiment [1] was 7.24; in experiment [2] (setting [5]) it was below 6.00.
In the case of `Cc1ccc(C)c(Oc2ccc(C#N)c(Cl)c2)c1` [Example 68, 2-Chloro-4-(2,5-dimethyl-phenoxy)-benzonitrile], the pIC50 in experiment [1] was 7.16; in experiment [2] (setting [5]), below 6.00.
`N#Cc1ccc(Oc2c(F)cccc2F)c(Cl)c1` [Example 124, 3-Chloro-4-(2,6-difluoro-phenoxy)-benzonitrile]: the pIC50 in experiment [1] was 7.35; in experiment [2] (setting [4]), 7.22.
On to `Cc1ccc(C(C)C)cc1Oc1ccc(C#N)c(Cl)c1` [Example 53, 2-Chloro-4-(5-isopropyl-2-methyl-phenoxy)-benzonitrile], for which the pIC50 in experiment [1] (setting [3]) is 6.72; in experiment [2] (setting [5]) it was 6.21.
As for `Cc1cccc(Oc2ccc(C#N)c(Cl)c2)c1` [Example 41, 2-Chloro-4-m-tolyloxy-benzonitrile], the pIC50 in experiment [1] was 7.07; in experiment [2] (setting [5]) it was 6.92.
The corresponding values for `Cc1cc(C)c(Oc2ccc(C#N)c(Cl)c2)c(C)c1` [Example 50, 2-Chloro-4-(2,4,6-trimethyl-phenoxy)-benzonitrile] are 7.66 and 6.67.
In the case of `N#Cc1ccc(Oc2c(F)cccc2F)cc1C(F)(F)F` [Example 121, 4-(2,6-Difluoro-phenoxy)-2-trifluoromethyl-benzonitrile], the pIC50 in experiment [1] was 7.20; in experiment [2] (setting [4]), 7.77.
Turning to `Cc1ccc(Oc2ccc(C#N)c(Cl)c2)c(C)c1` [Example 45, 2-Chloro-4-(2,4-dimethyl-phenoxy)-benzonitrile], the results for the pIC50 in experiment [1] and in experiment [2] (setting [5]) were 7.60 and 6.14, respectively.
Take `COc1cc(F)ccc1Oc1ccc(C#N)c(Cl)c1` [Example 56, 2-Chloro-4-(4-fluoro-2-methoxy-phenoxy)-benzonitrile]: the pIC50 is 8.22 in experiment [1] and 7.96 in experiment [2] (setting [4]).
Regarding `COc1ccc(Oc2ccc(C#N)c(C(F)(F)F)c2)c(C(C)=O)c1` [Example 90, 4-(2-Acetyl-4-methoxy-phenoxy)-2-trifluoromethyl-benzonitrile], the pIC50 in experiment [1] (setting [3]) was 6.69; in experiment [2] (setting [5]), 6.32.
With `CC(C)Oc1ccccc1Oc1ccc(C#N)c(Cl)c1` [Example 63, 2-Chloro-4-(2-isopropoxy-phenoxy)-benzonitrile], the negative-log IC50 (pIC50) was 7.15 in experiment [1] and 8.40 in experiment [2] (setting [4]).
